Measured values from patent publication US10750743B2, “Pyridazinone herbicides” (E.I. DU PONT DE NEMOURS AND COMPANY, priority 2015, dated 2020).

What was measured:
Assay type in all cases: in vivo
[1] = system: blackgrass (Alopecurus myosuroides); test: Test A postemergence application, visual injury rating; conditions: 0 to 100 scale, 0 no effect, 100 complete control
Source text: (§1) Seeds of plant species selected from barnyardgrass (Echinochloa crus-galli), kochia (Kochia scoparia), ragweed (common ragweed, Ambrosia elatior), ryegrass, It. (Italian ryegrass, Lolium multiflorum), foxtail, giant (giant foxtail, Setaria faberii), and pigweed (Amaranthus retroflexus), were planted into a blend of loam soil and sand and treated preemergence with a directed soil spray using test chemicals formulated in a non-phytotoxic solvent mixture which included a surfactant.
(§2) At the same time, plants selected from these weed species and also wheat (Triticum aestivum), corn (Zea mays), blackgrass (Alopecurus myosuroides), and galium (catchweed bedstraw, Galium aparine), were planted in pots containing the same blend of loam soil and sand and treated with postemergence applications of test chemicals formulated in the same manner Plants ranged in height from 2 to 10 cm and were in the one- to two-leaf stage for the postemergence treatment. Treated plants and untreated controls were maintained in a greenhouse for approximately 10 d, after which time all treated plants were compared to untreated controls and visually evaluated for injury. Plant response ratings, summarized in Table A, are based on a 0 to 100 scale where 0 is no effect and 100 is complete control. A dash (-) response means no test result.

[2] = system: pigweed (Amaranthus retroflexus); test: as above; conditions: 0 to 100 scale, 0 no effect, 100 complete control
Source text: as §1, §2

corn (Zea mays) = test: as above; conditions: 0 to 100 scale, 0 no effect, 100 complete control
Source text: as §1, §2

[3] = system: ragweed (common ragweed, Ambrosia elatior); test: as above; conditions: 0 to 100 scale, 0 no effect, 100 complete control
Source text: as §1, §2

[4] = system: ryegrass, It. (Italian ryegrass, Lolium multiflorum); test: as above; conditions: 0 to 100 scale, 0 no effect, 100 complete control
Source text: as §1, §2

[5] = system: wheat (Triticum aestivum); test: as above; conditions: 0 to 100 scale, 0 no effect, 100 complete control
Source text: as §1, §2

[6] = system: galium (catchweed bedstraw, Galium aparine); test: as above; conditions: 0 to 100 scale, 0 no effect, 100 complete control
Source text: as §1, §2

[7] = system: barnyardgrass (Echinochloa crus-galli); test: as above; conditions: 0 to 100 scale, 0 no effect, 100 complete control
Source text: as §1, §2

[8] = system: foxtail, giant (giant foxtail, Setaria faberii); test: as above; conditions: 0 to 100 scale, 0 no effect, 100 complete control
Source text: as §1, §2

kochia (Kochia scoparia) [9] = test: as above; conditions: 0 to 100 scale, 0 no effect, 100 complete control
Source text: as §1, §2

rice (Oryza sativa) = test: Test B flooded paddy test, visual rating; conditions: Flood, 250 g ai/ha, applied to paddy water, rated after 13 to 15 d
Protocol: (§3) Plant species in the flooded paddy test selected from rice (Oryza sativa), sedge, umbrella (small-flower umbrella sedge, Cyperus difformis), ducksalad (Heteranthera limosa), and barnyardgrass (Echinochloa crus-galli) were grown to the 2-leaf stage for testing. At time of treatment, test pots were flooded to 3 cm above the soil surface, treated by application of test compounds directly to the paddy water, and then maintained at that water depth for the duration of the test. Treated plants and controls were maintained in a greenhouse for 13 to 15 d, after which time all species were compared to controls and visually evaluated. Plant response ratings, summarized in Table B, are based on a scale of 0 to 100 where 0 is no effect and 100 is complete control. A dash (-) response means no test result.

[10] = system: ducksalad (Heteranthera limosa); test: Test B flooded paddy test, visual rating; conditions: Flood, 250 g ai/ha, applied to paddy water, rated after 13 to 15 d
Protocol: as §3

[11] = system: sedge, umbrella (small-flower umbrella sedge, Cyperus difformis); test: Test B flooded paddy test, visual rating; conditions: Flood, 250 g ai/ha, applied to paddy water, rated after 13 to 15 d
Protocol: as §3

[12] = system: barnyardgrass (Echinochloa crus-galli); test: Test B flooded paddy test, visual rating; conditions: Flood, 250 g ai/ha, applied to paddy water, rated after 13 to 15 d
Protocol: as §3

[13] = system: pigweed (Amaranthus retroflexus); test: Test A preemergence, directed soil spray, visual injury rating; conditions: 0 is no effect, 100 is complete control
Source text: as §1, §2

[14] = system: ragweed (common ragweed, Ambrosia elatior); test: as above; conditions: 0 is no effect, 100 is complete control
Source text: as §1, §2

[15] = system: ryegrass, It. (Italian ryegrass, Lolium multiflorum); test: as above; conditions: 0 is no effect, 100 is complete control
Source text: as §1, §2

[16] = system: barnyardgrass (Echinochloa crus-galli); test: as above; conditions: 0 is no effect, 100 is complete control
Source text: as §1, §2

[17] = system: foxtail, giant (giant foxtail, Setaria faberii); test: as above; conditions: 0 is no effect, 100 is complete control
Source text: as §1, §2

kochia (Kochia scoparia) [18] = test: as above; conditions: 0 is no effect, 100 is complete control
Source text: as §1, §2

Row | SMILES | Blackgrass plant response rating ([1]; 125 g ai/ha) | Blackgrass plant response rating ([1]; 500 g ai/ha) | Pigweed plant response rating ([2]; 125 g ai/ha) | Pigweed plant response rating ([2]; 500 g ai/ha) | Corn plant response rating (corn (Zea mays); 125 g ai/ha) | Corn plant response rating (corn (Zea mays); 500 g ai/ha) | Ragweed plant response rating ([3]; 125 g ai/ha) | Ragweed plant response rating ([3]; 500 g ai/ha) | Ryegrass, It. plant response rating ([4]; 125 g ai/ha) | Ryegrass, It. plant response rating ([4]; 500 g ai/ha) | Wheat plant response rating ([5]; 125 g ai/ha) | Wheat plant response rating ([5]; 500 g ai/ha) | Galium plant response rating ([6]; 125 g ai/ha) | Galium plant response rating ([6]; 500 g ai/ha) | Barnyardgrass plant response rating ([7]; 125 g ai/ha) | Barnyardgrass plant response rating ([7]; 500 g ai/ha) | Foxtail, Giant plant response rating ([8]; 125 g ai/ha) | Foxtail, Giant plant response rating ([8]; 500 g ai/ha) | Kochia plant response rating (kochia (Kochia scoparia) [9]; 125 g ai/ha) | Kochia plant response rating (kochia (Kochia scoparia) [9]; 500 g ai/ha) | other results
1 | Cc1nn(C)c(=O)c(-c2cccc3scnc23)c1O [Compound 1] | 0 | 10 | 0 | 10 | 0 | 0 | 0 | 10 | 0 | 40 | 0 | 0 | 0 | 30 | 0 | 0 | 0 | 0 | 0 | 0 | Rice plant response rating (0 to 100 scale, 0 is no effect, 100 is complete control) (rice (Oryza sativa)): 0; Ducksalad plant response rating (0 to 100 scale, 0 is no effect, 100 is complete control) [10]: 0; Sedge, Umbrella plant response rating (0 to 100 scale, 0 is no effect, 100 is complete control) [11]: 0; Barnyardgrass plant response rating (0 to 100 scale, 0 is no effect, 100 is complete control) [12]: 0; Plant response rating (0 to 100 scale), Pigweed ([13]; 125 g ai/ha): 0; Plant response rating (0 to 100 scale), Pigweed ([13]; 500 g ai/ha): 0; Plant response rating (0 to 100 scale), Ragweed ([14]; 125 g ai/ha): 0; Plant response rating (0 to 100 scale), Ragweed ([14]; 500 g ai/ha): 20; Plant response rating (0 to 100 scale), Ryegrass, It. ([15]; 125 g ai/ha): 0; Plant response rating (0 to 100 scale), Ryegrass, It. ([15]; 500 g ai/ha): 70; Plant response rating (0 to 100 scale), Barnyardgrass ([16]; 125 g ai/ha): 0; Plant response rating (0 to 100 scale), Barnyardgrass ([16]; 500 g ai/ha): 20; Plant response rating (0 to 100 scale), Foxtail, Giant ([17]; 125 g ai/ha): 0; Plant response rating (0 to 100 scale), Foxtail, Giant ([17]; 500 g ai/ha): 20; Plant response rating (0 to 100 scale), Kochia (kochia (Kochia scoparia) [18]; 125 g ai/ha): 0; Plant response rating (0 to 100 scale), Kochia (kochia (Kochia scoparia) [18]; 500 g ai/ha): 0
2 | Cc1nn(C)c(=O)c(-c2c(C)sc3ncccc23)c1O [Compound 14] | 0 | 0 | 0 | 0 | 0 | 0 | 0 | 0 | 0 | 20 | 0 | 0 | 0 | 40 | 0 | 0 | 0 | 0 | 0 | 0 | Plant response rating (0 to 100 scale), Pigweed ([13]; 125 g ai/ha): 0; Plant response rating (0 to 100 scale), Pigweed ([13]; 500 g ai/ha): 0; Plant response rating (0 to 100 scale), Ragweed ([14]; 125 g ai/ha): 0; Plant response rating (0 to 100 scale), Ragweed ([14]; 500 g ai/ha): 0; Plant response rating (0 to 100 scale), Ryegrass, It. ([15]; 125 g ai/ha): 10; Plant response rating (0 to 100 scale), Ryegrass, It. ([15]; 500 g ai/ha): 20; Plant response rating (0 to 100 scale), Barnyardgrass ([16]; 125 g ai/ha): 0; Plant response rating (0 to 100 scale), Barnyardgrass ([16]; 500 g ai/ha): 0; Plant response rating (0 to 100 scale), Foxtail, Giant ([17]; 125 g ai/ha): 0; Plant response rating (0 to 100 scale), Foxtail, Giant ([17]; 500 g ai/ha): 0; Plant response rating (0 to 100 scale), Kochia (kochia (Kochia scoparia) [18]; 125 g ai/ha): 0; Plant response rating (0 to 100 scale), Kochia (kochia (Kochia scoparia) [18]; 500 g ai/ha): 0
